This is an account of results in US11773086B2, “Fungal modulators” (TRUSTEES OF BOSTON UNIVERSITY, priority 2020, dated 2023).

One data set deals with C. albicans (SN95). Nature of the data set: Azoffluxin dose-response with background fluconazole. In kind it is cell-based, Candida albicans. The settings on record: fluconazole-sensitive laboratory strain SN95, background FLC 4 μg/mL. Here is the method: (§1) FIGS. 2A-2E illustrate the above-described screening of the BU-CMD which identified azoffluxin as a fluconazole (FLC) potentiator against C. auris. […] Growth, as determined by optical density at 600 nm (OD600), is plotted in the presence of each CMD compound alone on the y-axis and in combination with FLC on the x-axis. Dotted lines represent 7-median absolute deviations from the median for each condition. […] FIG. 2B depicts the synergistic interactions. […] Growth was measured by the OD600 and normalized to the no drug control (see color bar). The fractional inhibitory concentration index (FICI) was calculated to determine the chemical interaction, with a value below 0.5 indicating synergy. […] FIG. 2D depicts FLC Etest strips in the presence and absence of 50 μM azoffluxin. […]
(§2) Compound potency was assessed alone by dose response assays or in combination with another compound by dose-response matrixes in 96-well plates, or 384-well, flat-bottom, microtiter plates (Corning) as previously described. […] Growth was quantified by measuring OD600 and corrected for medium background. All strains were assessed in biological duplicate experiments with technical duplicates. […] For dose-response matrixes fractional inhibitory concentration index at 90% growth inhibition (FICI90) was calculated as previously described. […]

The nature of data set [1]: Single dose plasma pharmacokinetic profile. In kind it is in vivo, mice. The settings on record: mouse.
A short description of a further data set: Tolerability. The settings on record: 10 mg/Kg BID for 4 days. In kind it is in vivo.
Data set [2] has as its system Saccharomyces cerevisiae (BY4741). Briefly: Azoffluxin dose-response with background fluconazole. The settings on record: fluconazole-sensitive laboratory strain BY4741, background FLC 0.5 μg/mL. In kind it is cell-based. Here is the method: as §1, §2
Another data set deals with T1, MRP1 (ABCC1) (Homo sapiens, UniProt P33527).
T1 construct: expressed in transfected cells; host or cells: HEK293
Briefly: Calcein AM accumulation in MRP1-overexpressing HEK293 cells (flow cytometry). The settings on record: Calcein AM 2.5 μg/mL. In kind it is cell-based, mammalian. Here is the method: P-gp overexpressing HEK293 cell lines were used to determine if azoffluxin treatment leads to a greater accumulation of fluorescent substrates (MFI) as determined by flow cytometry.
MDR1 (ABCB1) and MRP1 (ABCC1) was assessed using the fluorescent dyes rhodamine 6G (0.5 μg/mL) and Calcein AM (2.5 μg/mL), for each pump respectively, and the known inhibitor controls tariquidar (60 nM) and MK571 (30 μM) for each pump respectively. Listed data is shown by FIG. 12E (R6G) and FIG. 12F (Cal).

In the next data set the test system is C. neoformans. Nature of the data set: Fluconazole efficacy with azoffluxin. The settings on record: despite increasing Nile red. In kind it is cell-based, Cryptococcus neoformans. The source says:
FIGS. 11A and 11B illustrate Nile red Accumulation in C. albicans, C. glabrata, and C. neoformans.

In a further data set the test system is C. auris B11801. Briefly: Kidney fungal burden (CFU) in infected mice. In kind it is in vivo. The settings on record: azoffluxin 10 mg/Kg SC four-times daily + fluconazole 32 mg/Kg IP twice daily, four days. Here is the method:
FIG. 10A depicts mammalian embryonic kidney (293T) cells expressing luciferase used to quantify mammalian cell growth in co-culture. Mammalian cells were seeded in 384-well plates in DMEM medium at 5×10^5 cells/mL overnight. After 24 hours the indicated concentration of compound (⋅ indicates combo treatment concentrations) was added along with 2.5×10^3 cells/mL of C. auris. Co-cultures were incubated for 48 hours at 37° C. and then the luminescence was measured as an output of mammalian cell growth. […] FIG. 10C depicts checkerboard assays performed as described in FIG. 2B with C. auris Clade IV isolate B11801. Relative growth was measured after 24 hours using OD600 and normalized to no-drug control wells (see color bar). The FICI calculated for each checkerboard is shown in the top right of each plot, with values<0.5 indicating synergy. […] Input is the CFU recovered in an aliquot of the fungal suspension use to inoculate mice. […] Fluconazole was administered at 32 mg/Kg IP twice daily and azoffluxin at 10 mg/Kg SC four-times daily. Error bars; SD, n=3 mice/treatment group.

The test system of another data set is C. albicans. Briefly: Checkerboard with fluconazole, clinical isolates CaCi-2 and CaCi-17. In kind it is cell-based, Candida albicans. Here is the method:
FIG. 9A depicts checkerboard assays as described in FIG. 2B and performed with isolates of C. albicans. CaCi-2 and CaCi-17 represent early and late clinical isolates in which FLC resistance evolved over time. Growth was measured at 24 hours using OD600 and normalized to a no drug control well (see color bar). FIG. 9B depicts dose response assays conducted in YPD medium with a C. albicans parental strain, and strains with gain of function mutations in TAC1 as indicated. FLC was tittered in a two-fold dilution on the x-axis in the absence and presence of 50 μM azoffluxin. Growth was measured at 24 hours using OD600 and normalized to a no drug control well (see color bar). […] FIGS. 9D and 9E depict the intracellular concentrations of FLC and azoffluxin measured after treatment (combo treatment at 6.25 μM azoffluxin and 8 μg/mL FLC) for 1 hour by LC-MS. […] Significance was determined by an unpaired student t-test of each combination to the respective compound alone treatment, (*) indicates a p-value<0.05 and (**) indicates a p-value<0.01.
Compound potency was assessed alone by dose response assays or in combination with another compound by dose-response matrixes in 96-well plates, or 384-well, flat-bottom, microtiter plates (Corning) as previously described. […] Growth was quantified by measuring OD600 and corrected for medium background. […]

T1 sequence (P33527 whole entry): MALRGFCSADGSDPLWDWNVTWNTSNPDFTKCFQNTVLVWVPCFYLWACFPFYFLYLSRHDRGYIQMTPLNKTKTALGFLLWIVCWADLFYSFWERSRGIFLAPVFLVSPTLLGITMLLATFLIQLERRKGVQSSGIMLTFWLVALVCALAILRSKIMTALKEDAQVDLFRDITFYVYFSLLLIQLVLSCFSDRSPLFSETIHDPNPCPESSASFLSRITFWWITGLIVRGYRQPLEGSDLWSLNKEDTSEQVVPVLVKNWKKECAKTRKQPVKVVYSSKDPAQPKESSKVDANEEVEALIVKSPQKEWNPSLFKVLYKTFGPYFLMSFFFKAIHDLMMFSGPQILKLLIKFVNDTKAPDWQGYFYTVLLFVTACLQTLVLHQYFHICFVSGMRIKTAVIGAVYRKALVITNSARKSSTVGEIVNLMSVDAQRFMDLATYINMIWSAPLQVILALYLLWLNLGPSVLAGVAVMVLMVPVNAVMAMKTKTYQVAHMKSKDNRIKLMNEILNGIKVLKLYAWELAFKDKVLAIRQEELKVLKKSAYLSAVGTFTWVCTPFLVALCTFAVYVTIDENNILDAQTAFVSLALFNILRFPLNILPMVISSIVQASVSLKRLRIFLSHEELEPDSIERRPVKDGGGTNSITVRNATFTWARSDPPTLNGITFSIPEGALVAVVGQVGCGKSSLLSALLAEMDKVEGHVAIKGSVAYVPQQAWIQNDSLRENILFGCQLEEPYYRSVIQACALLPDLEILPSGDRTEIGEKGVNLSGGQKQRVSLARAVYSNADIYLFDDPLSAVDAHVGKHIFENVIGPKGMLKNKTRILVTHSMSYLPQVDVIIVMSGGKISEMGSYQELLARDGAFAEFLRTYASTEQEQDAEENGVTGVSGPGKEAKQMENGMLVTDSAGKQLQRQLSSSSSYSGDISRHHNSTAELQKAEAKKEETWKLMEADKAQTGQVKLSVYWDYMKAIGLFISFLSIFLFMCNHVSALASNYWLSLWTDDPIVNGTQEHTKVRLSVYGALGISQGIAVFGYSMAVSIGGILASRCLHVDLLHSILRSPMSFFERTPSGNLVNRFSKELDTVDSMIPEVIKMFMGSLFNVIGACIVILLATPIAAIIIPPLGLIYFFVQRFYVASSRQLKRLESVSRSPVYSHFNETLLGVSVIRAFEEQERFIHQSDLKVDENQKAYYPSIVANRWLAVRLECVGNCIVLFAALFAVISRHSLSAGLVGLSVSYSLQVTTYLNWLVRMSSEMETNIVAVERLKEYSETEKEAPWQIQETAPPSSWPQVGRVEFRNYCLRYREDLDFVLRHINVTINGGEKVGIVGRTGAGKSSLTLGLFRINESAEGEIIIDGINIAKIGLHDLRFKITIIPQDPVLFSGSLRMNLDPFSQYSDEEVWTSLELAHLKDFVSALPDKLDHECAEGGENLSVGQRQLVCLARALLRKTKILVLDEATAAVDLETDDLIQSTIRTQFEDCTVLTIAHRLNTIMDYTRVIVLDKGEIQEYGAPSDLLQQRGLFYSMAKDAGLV

By half-life is commonly meant the time in which the quantity being followed falls by half. Low values mean fast loss, high ones slow loss. Consider `C=C(C)C[C@@H](O)COc1cc2c(cc1C1(c3cc4c(cc3OC[C@H](O)CC(=C)C)OCO4)C(=O)Nc3cc(F)ccc31)OCO2` [CMLD012336], for which the “enhancement of fluconazole activity” value (with C. albicans (SN95); in data set [2]) was “did not enhance the activity of fluconazole” throughout. Moreover, the half-life in data set [1] was 2.6 h. For the same compound, the tolerability result in “Tolerability” was “well tolerated”. Moreover, the “increase in calcein AM (Cal)” value on MRP1 (ABCC1) is recorded as 2.5 fold. Besides, the “enhancement of fluconazole efficacy” value in the data set with C. neoformans is “did not enhance the efficacy of fluconazole”. Moreover, the “antifungal activity of fluconazole in mice (kidney CFU)” value in the data set on C. auris B11801 is “markedly increases the antifungal activity of fluconazole”. Besides, the potentiation of fluconazole entry is “No potentiation” in the data set on C. albicans (early clinical isolate CaCi-2) and “did potentiate fluconazole” in the data set on C. albicans (late clinical isolate CaCi-17).
